Measured values published in PubChem BioAssay (NCI).
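1) Cells in 96-well plates. 2) Compound, 48 h, 5 concentrations. 3) Linear interpolation between surrounding doses. 4) Unreached endpoint = highest concentration. TGI denotes the concentration required for complete inhibition of growth.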

What follows are compounds tested on NCI-H226 lung (assay: DTP human tumour cell line panel, 48 h).
Work on `N=c1c2c(=S)n(-c3ccccc3)c(=S)n(-c3ccccc3)c2nc(SCCCN2CCCCC2)n1-c1ccccc1` yielded a TGI of 6.84 µM.
In the case of `CN1C(=O)C(O)CC1c1ccc(C(F)(F)F)cc1` (configuration not stated), the TGI is reported as > 100 µM.
`CC1=C(C(=O)OCCc2ccc([N+](=O)[O-])cc2)C(c2cccc([N+](=O)[O-])c2)C(C(=O)OC(C)C)=C(C)N1` (configuration not stated) was tested, and the TGI was > 100 µM.
With `Cc1cccc(C)c1NC(=O)/C=C/c1ccccc1` the TGI was > 100 µM.

What follows are compounds tested on BT-549 breast (assay: DTP human tumour cell line panel, 48 h).
`N=c1c2c(=S)n(-c3ccccc3)c(=S)n(-c3ccccc3)c2nc(SCCCN2CCCCC2)n1-c1ccccc1` was tested, and the TGI was 3.41 µM.
`CN1C(=O)C(O)CC1c1ccc(C(F)(F)F)cc1` (configuration not stated) was tested, and the TGI was > 100 µM.
With `CC1=C(C(=O)OCCc2ccc([N+](=O)[O-])cc2)C(c2cccc([N+](=O)[O-])c2)C(C(=O)OC(C)C)=C(C)N1` (configuration not stated) the TGI was > 100 µM.
`Cc1cccc(C)c1NC(=O)/C=C/c1ccccc1` was tested, and the TGI was > 100 µM.
With `COc1ccc2c(N=[N+]=[N-])c(-c3ccccc3)c(=O)oc2c1` the TGI was > 100 µM.

Each compound was assayed on IGROV1 ovarian (assay: DTP human tumour cell line panel, 48 h).
`N=c1c2c(=S)n(-c3ccccc3)c(=S)n(-c3ccccc3)c2nc(SCCCN2CCCCC2)n1-c1ccccc1` was tested, and the TGI was 3.09 µM.
With `CN1C(=O)C(O)CC1c1ccc(C(F)(F)F)cc1` (configuration not stated) the TGI was > 100 µM.
`CC1=C(C(=O)OCCc2ccc([N+](=O)[O-])cc2)C(c2cccc([N+](=O)[O-])c2)C(C(=O)OC(C)C)=C(C)N1` (configuration not stated) was tested, and the TGI was > 100 µM.
`COc1ccc2c(N=[N+]=[N-])c(-c3ccccc3)c(=O)oc2c1` was tested, and the TGI was > 100 µM.

What follows are compounds tested on NCI-H460 lung (assay: DTP human tumour cell line panel, 48 h).
`N=c1c2c(=S)n(-c3ccccc3)c(=S)n(-c3ccccc3)c2nc(SCCCN2CCCCC2)n1-c1ccccc1` gave a TGI of 4.3 µM.
With `CN1C(=O)C(O)CC1c1ccc(C(F)(F)F)cc1` (configuration not stated) the TGI was > 100 µM.
For `CC1=C(C(=O)OCCc2ccc([N+](=O)[O-])cc2)C(c2cccc([N+](=O)[O-])c2)C(C(=O)OC(C)C)=C(C)N1` (configuration not stated), the TGI was > 100 µM.
With `Cc1cccc(C)c1NC(=O)/C=C/c1ccccc1` the TGI was > 100 µM.
`COc1ccc2c(N=[N+]=[N-])c(-c3ccccc3)c(=O)oc2c1` was tested, and the TGI was > 100 µM.

The compounds below were run on MDA-MB-231 breast (assay: DTP human tumour cell line panel, 48 h).
`N=c1c2c(=S)n(-c3ccccc3)c(=S)n(-c3ccccc3)c2nc(SCCCN2CCCCC2)n1-c1ccccc1` was tested, and the TGI was 3.05 µM.
With `CN1C(=O)C(O)CC1c1ccc(C(F)(F)F)cc1` (configuration not stated) the TGI was > 100 µM.
With `Cc1cccc(C)c1NC(=O)/C=C/c1ccccc1` the TGI was > 100 µM.
`COc1ccc2c(N=[N+]=[N-])c(-c3ccccc3)c(=O)oc2c1` was tested, and the TGI was > 100 µM.

These compounds were tested on SN12C renal (assay: DTP human tumour cell line panel, 48 h).
`N=c1c2c(=S)n(-c3ccccc3)c(=S)n(-c3ccccc3)c2nc(SCCCN2CCCCC2)n1-c1ccccc1` was tested, and the TGI was 3.28 µM.
In the case of `CN1C(=O)C(O)CC1c1ccc(C(F)(F)F)cc1` (configuration not stated), the TGI is reported as > 100 µM.
`CC1=C(C(=O)OCCc2ccc([N+](=O)[O-])cc2)C(c2cccc([N+](=O)[O-])c2)C(C(=O)OC(C)C)=C(C)N1` (configuration not stated) was tested, and the TGI was > 100 µM.
In the case of `Cc1cccc(C)c1NC(=O)/C=C/c1ccccc1`, the TGI is reported as > 100 µM.
In the case of `COc1ccc2c(N=[N+]=[N-])c(-c3ccccc3)c(=O)oc2c1`, the TGI is reported as > 100 µM.

Each compound was assayed on HL-60(TB) leukemia (assay: DTP human tumour cell line panel, 48 h).
`N=c1c2c(=S)n(-c3ccccc3)c(=S)n(-c3ccccc3)c2nc(SCCCN2CCCCC2)n1-c1ccccc1` showed a TGI of 3.81 µM.
`CN1C(=O)C(O)CC1c1ccc(C(F)(F)F)cc1` (configuration not stated) was tested, and the TGI was > 100 µM.
For `Cc1cccc(C)c1NC(=O)/C=C/c1ccccc1`, the TGI was > 100 µM.
With `COc1ccc2c(N=[N+]=[N-])c(-c3ccccc3)c(=O)oc2c1` the TGI was 60.3 µM.

These compounds were tested on MDA-MB-435 (assay: DTP human tumour cell line panel, 48 h).
Work on `N=c1c2c(=S)n(-c3ccccc3)c(=S)n(-c3ccccc3)c2nc(SCCCN2CCCCC2)n1-c1ccccc1` yielded a TGI of 3.14 µM.
With `CN1C(=O)C(O)CC1c1ccc(C(F)(F)F)cc1` (configuration not stated) the TGI was > 100 µM.
`CC1=C(C(=O)OCCc2ccc([N+](=O)[O-])cc2)C(c2cccc([N+](=O)[O-])c2)C(C(=O)OC(C)C)=C(C)N1` (configuration not stated) was tested, and the TGI was > 100 µM.
`Cc1cccc(C)c1NC(=O)/C=C/c1ccccc1` was tested, and the TGI was > 100 µM.
`COc1ccc2c(N=[N+]=[N-])c(-c3ccccc3)c(=O)oc2c1` was tested, and the TGI was > 100 µM.

What follows are compounds tested on 786-0 renal (assay: DTP human tumour cell line panel, 48 h).
`N=c1c2c(=S)n(-c3ccccc3)c(=S)n(-c3ccccc3)c2nc(SCCCN2CCCCC2)n1-c1ccccc1` gave a TGI of 2.28 µM.
For `CN1C(=O)C(O)CC1c1ccc(C(F)(F)F)cc1` (configuration not stated), the TGI was > 100 µM.
For `CC1=C(C(=O)OCCc2ccc([N+](=O)[O-])cc2)C(c2cccc([N+](=O)[O-])c2)C(C(=O)OC(C)C)=C(C)N1` (configuration not stated), the TGI was > 100 µM.
`Cc1cccc(C)c1NC(=O)/C=C/c1ccccc1` was tested, and the TGI was > 100 µM.
`COc1ccc2c(N=[N+]=[N-])c(-c3ccccc3)c(=O)oc2c1` was tested, and the TGI was > 100 µM.

What follows are compounds tested on OVCAR-3 ovarian (assay: DTP human tumour cell line panel, 48 h).
For `N=c1c2c(=S)n(-c3ccccc3)c(=S)n(-c3ccccc3)c2nc(SCCCN2CCCCC2)n1-c1ccccc1`, the TGI was 3.02 µM.
With `CN1C(=O)C(O)CC1c1ccc(C(F)(F)F)cc1` (configuration not stated) the TGI was > 100 µM.
In the case of `CC1=C(C(=O)OCCc2ccc([N+](=O)[O-])cc2)C(c2cccc([N+](=O)[O-])c2)C(C(=O)OC(C)C)=C(C)N1` (configuration not stated), the TGI is reported as > 100 µM.
`Cc1cccc(C)c1NC(=O)/C=C/c1ccccc1` was tested, and the TGI was > 100 µM.

The compounds below were run on OVCAR-5 ovarian (assay: DTP human tumour cell line panel, 48 h).
`N=c1c2c(=S)n(-c3ccccc3)c(=S)n(-c3ccccc3)c2nc(SCCCN2CCCCC2)n1-c1ccccc1` showed a TGI of 26.2 µM.
For `CN1C(=O)C(O)CC1c1ccc(C(F)(F)F)cc1` (configuration not stated), the TGI was > 100 µM.
With `CC1=C(C(=O)OCCc2ccc([N+](=O)[O-])cc2)C(c2cccc([N+](=O)[O-])c2)C(C(=O)OC(C)C)=C(C)N1` (configuration not stated) the TGI was > 100 µM.
In the case of `Cc1cccc(C)c1NC(=O)/C=C/c1ccccc1`, the TGI is reported as > 100 µM.

What follows are compounds tested on SK-MEL-2 melanoma (assay: DTP human tumour cell line panel, 48 h).
With `N=c1c2c(=S)n(-c3ccccc3)c(=S)n(-c3ccccc3)c2nc(SCCCN2CCCCC2)n1-c1ccccc1` the TGI was 3.77 µM.
`CN1C(=O)C(O)CC1c1ccc(C(F)(F)F)cc1` (configuration not stated) was tested, and the TGI was > 100 µM.
`CC1=C(C(=O)OCCc2ccc([N+](=O)[O-])cc2)C(c2cccc([N+](=O)[O-])c2)C(C(=O)OC(C)C)=C(C)N1` (configuration not stated) was tested, and the TGI was > 100 µM.
`Cc1cccc(C)c1NC(=O)/C=C/c1ccccc1` was tested, and the TGI was > 100 µM.

Each compound was assayed on HCT-15 colon (assay: DTP human tumour cell line panel, 48 h).
For `N=c1c2c(=S)n(-c3ccccc3)c(=S)n(-c3ccccc3)c2nc(SCCCN2CCCCC2)n1-c1ccccc1`, the TGI was 3.23 µM.
`CN1C(=O)C(O)CC1c1ccc(C(F)(F)F)cc1` (configuration not stated) was tested, and the TGI was > 100 µM.
For `CC1=C(C(=O)OCCc2ccc([N+](=O)[O-])cc2)C(c2cccc([N+](=O)[O-])c2)C(C(=O)OC(C)C)=C(C)N1` (configuration not stated), the TGI was > 100 µM.
For `Cc1cccc(C)c1NC(=O)/C=C/c1ccccc1`, the TGI was > 100 µM.
For `COc1ccc2c(N=[N+]=[N-])c(-c3ccccc3)c(=O)oc2c1`, the TGI was > 100 µM.

What follows are compounds tested on HOP-62 NSCLC (assay: DTP human tumour cell line panel, 48 h).
In the case of `N=c1c2c(=S)n(-c3ccccc3)c(=S)n(-c3ccccc3)c2nc(SCCCN2CCCCC2)n1-c1ccccc1`, the TGI is reported as 3.38 µM.
For `CN1C(=O)C(O)CC1c1ccc(C(F)(F)F)cc1` (configuration not stated), the TGI was > 100 µM.
With `CC1=C(C(=O)OCCc2ccc([N+](=O)[O-])cc2)C(c2cccc([N+](=O)[O-])c2)C(C(=O)OC(C)C)=C(C)N1` (configuration not stated) the TGI was > 100 µM.
For `Cc1cccc(C)c1NC(=O)/C=C/c1ccccc1`, the TGI was > 100 µM.
`COc1ccc2c(N=[N+]=[N-])c(-c3ccccc3)c(=O)oc2c1` was tested, and the TGI was > 100 µM.

Each compound was assayed on RXF 393 renal (assay: DTP human tumour cell line panel, 48 h).
In the case of `N=c1c2c(=S)n(-c3ccccc3)c(=S)n(-c3ccccc3)c2nc(SCCCN2CCCCC2)n1-c1ccccc1`, the TGI is reported as 3.26 µM.
`CN1C(=O)C(O)CC1c1ccc(C(F)(F)F)cc1` (configuration not stated) was tested, and the TGI was > 100 µM.
`CC1=C(C(=O)OCCc2ccc([N+](=O)[O-])cc2)C(c2cccc([N+](=O)[O-])c2)C(C(=O)OC(C)C)=C(C)N1` (configuration not stated) was tested, and the TGI was > 100 µM.

The compounds below were run on M14 melanoma (assay: DTP human tumour cell line panel, 48 h).
Compound `N=c1c2c(=S)n(-c3ccccc3)c(=S)n(-c3ccccc3)c2nc(SCCCN2CCCCC2)n1-c1ccccc1` has a TGI of 3.1 µM.
